Laboratory results taken from patent US20240400586A1, “HETEROARYL DERIVATIVE PARP INHIBITOR AND USE THEREOF” (HAISCO PHARMACEUTICAL GROUP CO., LTD., priority 2021, published 2024).

Experiments:
[1] = tested on: breast tumor cells MDA-MB-436; assay: MDA-MB-436 cell activity test (CellTiter-Glo, 7 days); type: cell-based; details: Homo sapiens, MDA-MB-436, 168 h, 7 days incubation; for inhibition at 10 µM: read-out: MDA-MB-436 Max inh. % 10 μM; for IC50: read-out: MDA-MB-436 cell inhibitory activity IC50
Method: Breast tumor cells MDA-MB-436 were purchased from ATCC, the culture medium was Leibovitz's L-15+10% FBS, and the cells were cultured in a CO2-free incubator at 37° C. On day 1, the cells in the exponential growth phase were collected, and the cell suspension was adjusted to 4000 cells/135 μL with the culture medium. 135 μL of the cell suspension was added to each well of a 96-well cell culture plate and incubated overnight. On day 2, compounds at different concentrations were added, and the plate was placed in the incubator and incubated for 7 days. After the incubation was completed, according to operation instructions for a CellTiter-Glo kit (Promega, G7573), 75 μL of CTG solution, which was already pre-melted and equilibrated to room temperature, was added to each well, and the mixture was uniformly mixed for 2 min using a microplate shaker. The plate was placed at room temperature for 10 min, and then […] were measured using an Envision2104 plate reader (PerkinElmer). The inhibition rate was calculated using formula (1), where RLUcompound was the readout of the drug treated group, RLUcontrol was the average value of the vehicle control group, and RLUblank was the average value of the cell-free well. The IC50 value was calculated using GraphPad Prism software.

PARP-1 enzyme = PARP-1 enzyme (Homo sapiens (Human), UniProt P09874); assay: PARP1 enzyme activity test (BPS Bioscience chemiluminescence kit); type: biochemical
Description: Inhibition %=(1−(RLUsample−RLUmin)/(RLUmax−RLUmin))×100% (formula 1)

Sequence of PARP-1 enzyme (P09874 whole entry): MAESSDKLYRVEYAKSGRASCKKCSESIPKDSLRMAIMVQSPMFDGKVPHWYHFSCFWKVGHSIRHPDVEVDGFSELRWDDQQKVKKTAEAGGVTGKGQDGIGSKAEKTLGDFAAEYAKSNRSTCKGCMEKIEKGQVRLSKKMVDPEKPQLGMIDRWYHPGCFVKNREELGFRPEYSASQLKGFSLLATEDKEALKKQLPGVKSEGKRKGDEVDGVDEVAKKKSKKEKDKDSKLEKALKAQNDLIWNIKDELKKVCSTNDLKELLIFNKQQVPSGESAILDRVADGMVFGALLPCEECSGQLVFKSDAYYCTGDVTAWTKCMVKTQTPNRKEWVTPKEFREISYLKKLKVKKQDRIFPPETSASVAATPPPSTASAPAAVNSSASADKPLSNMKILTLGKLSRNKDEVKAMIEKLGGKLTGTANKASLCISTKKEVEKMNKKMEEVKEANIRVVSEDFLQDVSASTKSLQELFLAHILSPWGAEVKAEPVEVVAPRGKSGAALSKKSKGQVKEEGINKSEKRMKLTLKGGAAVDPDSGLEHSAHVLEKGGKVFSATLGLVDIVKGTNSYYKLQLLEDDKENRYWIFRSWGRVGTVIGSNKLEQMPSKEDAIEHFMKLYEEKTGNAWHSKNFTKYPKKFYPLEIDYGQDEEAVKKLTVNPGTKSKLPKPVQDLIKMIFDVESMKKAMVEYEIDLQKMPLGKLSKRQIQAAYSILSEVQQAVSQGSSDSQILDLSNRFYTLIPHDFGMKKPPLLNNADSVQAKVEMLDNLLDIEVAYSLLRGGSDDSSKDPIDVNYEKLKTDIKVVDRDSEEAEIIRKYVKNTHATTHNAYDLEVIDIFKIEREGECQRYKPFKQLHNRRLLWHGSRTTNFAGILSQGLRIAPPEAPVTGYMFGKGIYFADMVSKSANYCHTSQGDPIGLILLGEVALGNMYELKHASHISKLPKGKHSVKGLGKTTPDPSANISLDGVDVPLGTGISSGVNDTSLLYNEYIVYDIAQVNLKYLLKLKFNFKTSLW

| Structure (SMILES) | inhibition at 10 µM [1] [%] | IC50 [1] [nM] | IC50 (PARP-1 enzyme) [nM] |
| --- | --- | --- | --- |
| CCc1cc2ncc(CN3CCN(c4ccc(NC(=O)OC5CC5)nc4)CC3)cc2[nH]c1=O [Compound 37, Cyclopropyl(5-(4-((7-ethyl-6-oxo-5,6-dihydro-1,5-naphthyridin-3-yl)methyl)piperazin-1-yl)pyridin-2-yl)carbamate] | 93.7 | 18.9 | 0.96 |
| CCc1cc2ncc(CN3CCN(c4ccc(C(=O)NC5CNC5)nc4)CC3)cc2[nH]c1=O [Compound 22, N-(azetidin-3-yl)-5-(4-((7-ethyl-6-oxo-5,6-dihydro-1,5-naphthyridin-3-yl)methyl)piperazin-1-yl)picolinamide] | 89.4 | 12 | 0.51 |
| CCc1cc2ncc(CN3CCN(c4ccc(C(=O)Nc5cnn(C)c5)nc4)CC3)cc2[nH]c1=O [Compound 23, 5-(4-((7-ethyl-6-oxo-5,6-dihydro-1,5-naphthyridin-3-yl)methyl)piperazin-1-yl)-N-(1-methyl-1H-pyrazol-4-yl)picolinamide] | 84.2 | 1.4 | 0.67 |
| CCc1cc2ncc(CN3CCN(c4ccc(NC(=O)C5CC(F)(F)C5)nc4)CC3)cc2[nH]c1=O [Compound 26, N-(5-(4-((7-ethyl-6-oxo-5,6-dihydro-1,5-naphthyridin-3-yl)methyl)piperazin-1-yl)pyridin-2-yl)-3,3-difluorocyclobutane-1-carboxamide] | 86.3 | 18 | 0.48 |
| CCc1cc2ncc(CN3CCN(c4ccc(-c5nnc(C)[nH]5)nc4)CC3)cc2[nH]c1=O [Compound 42, 3-ethyl-7-((4-(6-(5-methyl-4H-1,2,4-triazol-3-yl)pyridin-3-yl)piperazin-1-yl)methyl)-1,5-naphthyridin-2 (1H)-one] | 84.1 | 24.1 | 0.67 |
| CCc1cc2ncc(CN3CCN(c4ccc(C(=O)NCC5CC5)nc4)CC3)cc2[nH]c1=O [Compound 40, N-(cyclopropylmethyl)-5-(4-((7-ethyl-6-oxo-5,6-dihydro-1,5-naphthyridin-3-yl)methyl)piperazin-1-yl)picolinamide] | 99.3 | 5.6 | 0.61 |
| CCc1cc2ncc(CN3CCN(c4ccc(NC(=O)[C@H]5CC5(F)F)nc4)CC3)cc2[nH]c1=O (single isomer, unassigned) [Compound 51] | 95.6 | 8.5 | 0.66 |
| CCc1cc2ncc(CN3CCN(c4ccc(NC(=O)C5CC5)nc4)CC3)cc2[nH]c1=O [Compound 9, N-(5-(4-((7-ethyl-6-oxo-5,6-dihydro-1,5-naphthyridin-3-yl)methyl)piperazin-1-yl)pyridin-2-yl)cyclopropanecarboxamide] | 86.2 | 6 | 0.73 |
| CCc1cc2ncc(CN3CCN(c4ccc(NC(=O)c5cnn(C)c5)nc4)CC3)cc2[nH]c1=O [Compound 33, N-(5-(4-((7-ethyl-6-oxo-5,6-dihydro-1,5-naphthyridin-3-yl)methyl)piperazin-1-yl)pyridin-2-yl)-1-methyl-1H-pyrazole-4-carboxamide] | 90 | 3.1 | 0.74 |
| CCc1cc2ncc(CN3CCN(c4ccc(NC(=O)[C@@H]5CC5(F)F)nc4)CC3)cc2[nH]c1=O (single isomer, unassigned) [Compound 50] | 92.9 | 3 | 0.69 |
| CCc1cc2ncc(CN3CCN(c4ccc(C(=O)NC5CC6(CCC6)C5)nc4)CC3)cc2[nH]c1=O [Compound 38, 5-(4-((7-ethyl-6-oxo-5,6-dihydro-1,5-naphthyridin-3-yl)methyl)piperazin-1-yl)-N-(spiro[3.3]heptan-2-yl)picolinamide] | 98.8 | 17.6 | 0.7 |
| CCc1cc2ncc(CN3CCN(c4ccc(C(=O)N[C@H]5C[C@H]5F)nc4)CC3)cc2[nH]c1=O [Compound 41, 5-(4-((7-ethyl-6-oxo-5,6-dihydro-1,5-naphthyridin-3-yl)methyl)piperazin-1-yl)-N-((1S,2R)-2-fluorocyclopropyl)picolinamide] | 92.1 | 2.3 | 0.84 |
| CCc1cc2ncc(CN3CCN(c4ccc(C(=O)NCCOC)nc4)CC3)cc2[nH]c1=O [Compound 24, 5-(4-((7-ethyl-6-oxo-5,6-dihydro-1,5-naphthyridin-3-yl)methyl)piperazin-1-yl)-N-(2-methoxyethyl)picolinamide] | 82.3 | 9 | 0.73 |
| CCc1cc2ncc(CN3CCN(c4ccc(C(=O)NC56CC(C5)C6)nc4)CC3)cc2[nH]c1=O [Compound 39, N-(bicyclo[1.1.1]pentan-1-yl)-5-(4-((7-ethyl-6-oxo-5,6-dihydro-1,5-naphthyridin-3-yl)methyl)piperazin-1-yl)picolinamide] | 99.1 | 1.2 | 0.77 |
| CCc1cc2ncc(CN3CCN(c4ccc(C(=O)N[C@@H]5C[C@@H]5F)nc4)CC3)cc2[nH]c1=O [Compound 11, 5-(4-((7-ethyl-6-oxo-5,6-dihydro-1,5-naphthyridin-3-yl)methyl)piperazin-1-yl)-N-((1R,2S)-2-fluorocyclopropyl)picolinamide] | 85.2 | 6 | 0.54 |
| CCc1cc2ncc(CN3CCN(c4ccc(C(=O)NC5CC(F)(F)C5)nc4)CC3)cc2[nH]c1=O [Compound 25, N-(3,3-difluorocyclobutyl)-5-(4-((7-ethyl-6-oxo-5,6-dihydro-1,5-naphthyridin-3-yl)methyl)piperazin-1-yl)picolinamide] | 99 | 16 | 0.88 |
| CCc1cc2ncc(CN3CCN(c4cn5cc(C(F)F)nc5cn4)CC3)cc2[nH]c1=O [Compound 45] | – | – | 0.73 |
| CCc1cn2cc(N3CCN(Cc4cnc5cc(CC)c(=O)[nH]c5c4)CC3)ncc2n1 [Compound 44, 3-ethyl-7-((4-(2-ethylimidazo[1,2-a]pyrazin-6-yl)piperazin-1-yl)methyl)-1,5-naphthyridin-2 (1H)-one] | – | – | 0.92 |
| CCc1cc2ncc(CN3CCN(c4cnc(C(=O)NC)c(F)c4)CC3)cc2[nH]c1=O [Compound 6, 5-(4-((7-ethyl-6-oxo-5,6-dihydro-1,5-naphthyridin-3-yl)methyl)piperazin-1-yl)-3-fluoro-N-methylpicolinamide] | 85.7 | 10 | 0.56 |
| CCc1cc2ncc(CN3CCN(c4ccc(C(=O)NC5CCC5)nc4)CC3)cc2[nH]c1=O [Compound 10, N-cyclobutyl-5-(4-((7-ethyl-6-oxo-5,6-dihydro-1,5-naphthyridin-3-yl)methyl)piperazin-1-yl)picolinamide] | 94.2 | 17 | 0.56 |
